We go through 3 molecules from patent publication US8232289B2, “Spiropiperidine compounds as ORL-1 receptor antagonists” (Eli Lilly and Company, priority 2009, dated 2012).

Structures are written as SMILES. Read-outs that look alike come from different tables or passages of the source. Marks after values point to notes of the source that are not given here.

Assay [1] has as its target Mu Opioid (Homo sapiens, UniProt P35372). Description: Radioligand binding selectivity, Mu Opioid. An excerpt: (§1) Similarly, Ki for the mu, kappa and delta opioids, serotonin, dopamine, adrenergic, mucarinic, and histamine receptors, as well as binding to the norepinephrine transporter, sodium channel, chloride channel, and calcium channel may be determined using membranes expressing the desired receptor/transporter/channels and appropriate corresponding radioligand competitor molecules.

Assay [2] addresses Kappa Opioid (Homo sapiens, UniProt P41145). Description: Radioligand binding selectivity, Kappa Opioid.
Description: as §1

For assay [3], the target named is Delta Opioid (Homo sapiens, UniProt P41143). In words: Radioligand binding selectivity, Delta Opioid.
Description: as §1

Assay [4] has as its target T1, human ERG (hERG) K+ channel (Homo sapiens, UniProt Q12809).
T1 construct: host or cells: HEK293 cells
In words: hERG channel [3H]astemizole binding assay. How it is done: Blockade of K^+-channel conductance in the heart is associated with cardiotoxicity in the form of QT-wave prolongation. The affinity (K) of the exemplified nociceptin receptor antagonists for the human ERG (hERG) K^+ channel is determined in HEK293 cells expressing cloned hERG using the hERG channel antagonist radioligand [3H]astemizole (2 nM final assay concentration) according to well known procedures (see for example Finlayson K, et al. (Eur J Pharmacol. 412(3):203-12, 2001) [3H]Astemizole binding assays are performed at the contract research company Cerep (Paris France) according to standard procedures.
In general terms: Block of hERG is tested as a sign of cardiac risk.

For assay [5], the system named is male NIH-Swiss mice. In words: Forced-swim test in mice (mFST). The assay is classed as in vivo. The following applies: for ED60 in mFST: immobilization time; for maximum effect, reduction in immobilization time: mouse, in vivo. An excerpt:
mFST is an established in vivo assay for antidepressant activity (Li et al. J Pharmacol Exp Ther. 319(1):254-9, 2006.). […] The mFST was used to evaluate potential antidepressant-like activity of novel nociceptin/ORL1 antagonists according to previously published methods (Li et al. J Pharmacol Exp Ther. 319(1):254-9, 2006.). Briefly, male NIH-Swiss mice (Harlan Sprague-Dawley, Indianapolis, Ind.) weighing between 25-30 g are used. Group housed animals are removed from the vivarium to the testing area in their own cages and allowed to adapt to the new environment for at least 1 hour before testing. Alternatively, male 129S6 wild type and nociceptin/ORL1 receptor knockout mice were used to confirm dependence of the response to compound was nociceptin/ORL1 receptor dependent. All compounds are prepared in 20% Captisol, 25 mM phosphate buffer, pH 2.0 on the day of use. Mice are placed in a cylinder (diameter: 10 cm; height: 25 cm) filled with 6 cm of water (22-25° C.) for 6 min. The duration of immobility during the last 4 min. of the 6 min. period of the test was scored. A mouse is recorded as immobile when floating motionless or making only those movements necessary to keep its head above water.

Assay [6] relates to wild type and ORL knockout mice. In words: Blockade of fasting-induced hyperphagia in mice. The assay is classed as in vivo. An excerpt: Blockade of fasting-induced hyperphagia in rodents is an accepted model for hyperphagic eating disorders. […] Mice are individually housed a minimum of 3 days prior to the onset of testing to eliminate any effects of stress due to the change from group to individual housing. Three mice/genotype are randomly assigned to each treatment group on the test day. Pre-fast body weight measurements are taken, and food is then removed from cages overnight. Mice are fasted for approximately 15 hr. The next morning, the mice are given one of three doses of drug or vehicle via oral gavage 30 min. prior to gaining access to food. Drugs are dissolved in 20% Captisol dissolved in 25 mM phosphate buffer, pH 2.0. Measurements of body weight are taken immediately prior to drug treatment or 24 hr. after access to food is restored. […] Measurements of food intake are recorded 1 hr following access to food, as indicated, by weight of food remaining at 1 hr. It should be noted that food intake measured is during the light phase, a time during which mice are typically at rest and not normally eating. Following initial testing, mice are rested for 1 week with access to unlimited chow.

Where [7] appears, read: wild type mice, oral gavage 30 min. prior to food, food intake at 1 hr.

Chain of Mu Opioid (P35372 whole entry): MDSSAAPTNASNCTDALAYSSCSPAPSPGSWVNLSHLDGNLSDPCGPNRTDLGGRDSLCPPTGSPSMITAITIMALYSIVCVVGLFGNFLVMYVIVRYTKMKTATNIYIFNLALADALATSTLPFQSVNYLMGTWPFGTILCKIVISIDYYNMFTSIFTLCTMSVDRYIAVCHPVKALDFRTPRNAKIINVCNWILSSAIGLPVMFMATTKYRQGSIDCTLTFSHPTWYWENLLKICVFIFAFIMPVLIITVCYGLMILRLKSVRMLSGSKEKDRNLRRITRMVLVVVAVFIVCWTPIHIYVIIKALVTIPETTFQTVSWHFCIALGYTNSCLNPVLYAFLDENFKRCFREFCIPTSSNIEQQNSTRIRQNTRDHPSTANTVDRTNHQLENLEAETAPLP
Chain of Delta Opioid (P41143 whole entry): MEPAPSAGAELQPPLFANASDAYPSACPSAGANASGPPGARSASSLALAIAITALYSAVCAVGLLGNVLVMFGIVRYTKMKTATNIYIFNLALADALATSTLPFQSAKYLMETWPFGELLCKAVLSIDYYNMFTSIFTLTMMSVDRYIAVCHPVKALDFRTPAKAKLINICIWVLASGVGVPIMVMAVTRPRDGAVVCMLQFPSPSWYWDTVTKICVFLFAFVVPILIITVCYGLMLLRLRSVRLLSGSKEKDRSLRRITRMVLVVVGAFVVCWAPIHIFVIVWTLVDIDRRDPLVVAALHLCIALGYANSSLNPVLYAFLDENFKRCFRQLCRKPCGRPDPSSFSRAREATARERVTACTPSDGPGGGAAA
T1 sequence (Q12809 whole entry): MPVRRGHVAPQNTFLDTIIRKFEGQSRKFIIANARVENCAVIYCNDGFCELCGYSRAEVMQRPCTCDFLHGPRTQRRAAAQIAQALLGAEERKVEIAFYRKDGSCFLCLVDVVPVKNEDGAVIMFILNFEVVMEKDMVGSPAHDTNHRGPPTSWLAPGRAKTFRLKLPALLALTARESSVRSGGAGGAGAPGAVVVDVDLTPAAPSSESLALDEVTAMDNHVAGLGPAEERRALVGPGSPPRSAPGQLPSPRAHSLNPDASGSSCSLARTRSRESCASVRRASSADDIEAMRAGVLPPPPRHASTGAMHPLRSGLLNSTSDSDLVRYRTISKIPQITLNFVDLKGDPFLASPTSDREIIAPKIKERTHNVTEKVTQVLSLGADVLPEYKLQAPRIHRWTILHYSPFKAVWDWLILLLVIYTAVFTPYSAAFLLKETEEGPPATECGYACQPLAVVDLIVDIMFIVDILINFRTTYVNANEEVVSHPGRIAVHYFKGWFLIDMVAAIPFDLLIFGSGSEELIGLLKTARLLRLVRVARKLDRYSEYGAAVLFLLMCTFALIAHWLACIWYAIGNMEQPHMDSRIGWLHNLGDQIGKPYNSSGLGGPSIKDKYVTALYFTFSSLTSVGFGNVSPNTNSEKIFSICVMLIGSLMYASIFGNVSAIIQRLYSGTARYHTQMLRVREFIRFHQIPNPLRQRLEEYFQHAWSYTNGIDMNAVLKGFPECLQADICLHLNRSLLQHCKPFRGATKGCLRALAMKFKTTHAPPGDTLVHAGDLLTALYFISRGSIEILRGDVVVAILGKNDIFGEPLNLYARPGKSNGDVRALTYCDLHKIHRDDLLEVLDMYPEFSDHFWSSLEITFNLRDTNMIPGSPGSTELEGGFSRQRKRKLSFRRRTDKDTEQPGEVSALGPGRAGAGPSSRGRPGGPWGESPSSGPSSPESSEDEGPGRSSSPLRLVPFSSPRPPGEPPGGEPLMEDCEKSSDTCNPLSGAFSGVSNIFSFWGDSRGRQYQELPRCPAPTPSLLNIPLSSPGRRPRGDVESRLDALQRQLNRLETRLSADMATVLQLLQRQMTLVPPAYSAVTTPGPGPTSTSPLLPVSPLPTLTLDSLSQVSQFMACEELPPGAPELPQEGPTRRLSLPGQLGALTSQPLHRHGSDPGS
Chain of Kappa Opioid (P41145 whole entry): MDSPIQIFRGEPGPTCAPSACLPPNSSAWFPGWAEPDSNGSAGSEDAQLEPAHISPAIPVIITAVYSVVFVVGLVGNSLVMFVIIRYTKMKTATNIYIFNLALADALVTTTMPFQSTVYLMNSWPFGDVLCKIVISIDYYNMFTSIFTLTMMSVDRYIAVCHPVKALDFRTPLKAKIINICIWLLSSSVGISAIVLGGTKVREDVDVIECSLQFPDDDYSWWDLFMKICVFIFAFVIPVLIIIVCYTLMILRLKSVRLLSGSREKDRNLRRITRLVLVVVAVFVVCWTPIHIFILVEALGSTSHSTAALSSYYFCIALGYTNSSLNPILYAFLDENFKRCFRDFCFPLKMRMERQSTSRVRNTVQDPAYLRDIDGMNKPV

For the molecule `Cc1nn(-c2ncccc2Cn2cccn2)cc1CN1CCC2(CC1)OCC(F)(F)c1cc(Cl)sc12.O=C(O)C(O)C(O)C(=O)O` [Example 23, 2-Chloro-4,4-difluoro-1′-[[3-methyl-1-[3-(pyrazol-1-ylmethyl)-2-pyridyl]pyrazol-4-yl]methyl]spiro[5H-thieno[2,3-c]pyran-7,4′-piperidine] (L)-Tartrate], the Ki in assay [1] was greater than 451 nM; in assay [2] it was greater than 430 nM; in assay [3], greater than 479 nM; in assay [4], 1210 nM. Further, in assay [5], the “ED60 in mFST” value is 9.5 mg/kg. Also, the “maximum effect, reduction in immobilization time” value (“maximum effect, reduction” for short) in assay [5] was found to be 58%. The results for the “effect on fasting-induced hyperphagia” value in assay [6] (ORL-1 knockout mouse strain) and in assay [6] (setting [7]) were “not observed” and “substantially block fasting-induced hyperphagia”, respectively.
Turning to `O=C(O)C(O)C(O)C(=O)O.OCc1nn(-c2ncccc2F)cc1CN1CCC2(CC1)OCC(F)(F)c1cc(Cl)sc12` [Example 53, [4-[(2-Chloro-4,4-difluoro-spiro[5H-thieno[2,3-c]pyran-7,4′-piperidine]-1′-yl)methyl]-1-(3-fluoro-2-pyridyl)pyrazol-3-yl]methanol (L)-Tartrate], the Ki in assay [1] is greater than 451 nM; in assay [2] it was greater than 430 nM; in assay [3] it was greater than 479 nM; in assay [4], 8600 nM. The “ED60 in mFST” value in assay [5] stood at 12.9 mg/kg. In assay [5], the “maximum effect, reduction” value was 54%. For the same molecule, the “effect on fasting-induced hyperphagia” value is given as “not observed” in assay [6] (ORL-1 knockout mouse strain) and “substantially block fasting-induced hyperphagia” in assay [6] (setting [7]).
Turning to `Cc1nn(-c2ncccc2CO)cc1CN1CCC2(CC1)OCC(F)(F)c1cc(Cl)sc12` [Example 62, [2-[4-[(2-Chloro-4,4-difluoro-spiro[5H-thieno[2,3-c]pyran-7,4′-piperidine]-1′-yl)methyl]-3-methyl-pyrazol-1-yl]-3-pyridyl]methanol], the Ki in assay [1] (read-out: Ki Mu Opioid) is greater than 451 nM; in assay [2] (read-out: Ki Kappa Opioid), greater than 430 nM; in assay [3] (read-out: Ki Delta Opioid), greater than 479 nM; in assay [4] (HEK293 cells expressing cloned hERG, [3H]astemizole 2 nM, read-out: Ki hERG K+ channel), 6080 nM. Further, the “Immobilization Time” value in assay [5] (3 mg/Kg Ex. 62 + 10 mg/Kg fluoxetine) was 97* sec; in assay [5] (3 mg/Kg, alone), 163 s; in assay [5] (10 mg/Kg Ex. 62 + 10 mg/Kg fluoxetine), 85* sec; in assay [5] (10 mg/Kg, alone) it was 129 s. Besides, the “ED60 in mFST” value in assay [5] turned out to be 24.9 mg/kg. In assay [5] (in combination with 10 mg/kg fluoxetine), the “effect on immobilization time in combination with fluoxetine” value is “significantly further reduce immobilization time over either fluoxetine or the compound of Example 62 alone”. Besides, the “maximum effect, reduction” value in assay [5] was 45%. The “effect on fasting-induced hyperphagia” value in assay [6] (ORL-1 knockout mouse strain) was “not observed”; in assay [6] (setting [7]) it was “substantially block fasting-induced hyperphagia”.
